Assay: Plasma concentration in C57BL/6 mouse at 6 mg/kg, po administered as single dose after 0.25 to 24 hrs by LC/MS/MS analysis
Type: ADME, organism-based
Details: in vivo, time 0.25-24 hrs

Nc1ncnc2c1ncn2[C@H]1C[C@@H](OCP(=O)(O)O)CO1
Cp: < 1.01 ng/mL

From ChEMBL document CHEMBL4665893, “Scalable Synthesis, In Vitro cccDNA Reduction, and In Vivo Antihepatitis B Virus Activity of a Phosphonomethoxydeoxythreosyl Adenine Prodrug” (J Med Chem, 2020)
